Assay results taken from ChEMBL document CHEMBL1201862, “PubChem BioAssay data set” (2004).
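Growth conditions: 96-well plates. Treatment: test compound, 48 hours, 5 concentrations. Analysis: linear interpolation between bracketing concentrations; unreached endpoints set to highest concentration. GI50: concentration for 50% inhibition of growth.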 The source made the active and inactive calls. No stated cut-off is given here; in the data, active = GI50 up to about 1.1 µM and inactive = higher.

Experiments:
Assay in all cases: inhibition of tumour cell growth, NCI panel, 48 h
CCRF-CEM = tested on: CCRF-CEM
SF-539 = tested on: SF-539
NCI-H460 = tested on: NCI-H460
SF-268 = tested on: SF-268
NCI-H23 = tested on: NCI-H23
K562 = tested on: K562
SNB-19 = tested on: SNB-19
SK-MEL-28 = tested on: SK-MEL-28
EKVX = tested on: EKVX
NCI-H522 = tested on: NCI-H522
UO-31 = tested on: UO-31
HCC 2998 = tested on: HCC 2998
ACHN = tested on: ACHN
MDA-MB-435 = tested on: MDA-MB-435
M14 = tested on: M14
BT-549 = tested on: BT-549
UACC-257 = tested on: UACC-257
SF-295 = tested on: SF-295
OVCAR-8 = tested on: OVCAR-8
OVCAR-4 = tested on: OVCAR-4
U-251 = tested on: U-251
RXF 393 = tested on: RXF 393
NCI-H226 = tested on: NCI-H226
SK-OV-3 = tested on: SK-OV-3
KM12 = tested on: KM12
SK-MEL-2 = tested on: SK-MEL-2
NCI/ADR-RES = tested on: NCI/ADR-RES
SNB-75 = tested on: SNB-75
MCF7 = tested on: MCF7
SW-620 = tested on: SW-620
HCT-15 = tested on: HCT-15
HOP-62 = tested on: HOP-62
OVCAR-5 = tested on: OVCAR-5
PC-3 = tested on: PC-3
RPMI-8226 = tested on: RPMI-8226
TK-10 = tested on: TK-10
Hs-578T = tested on: Hs-578T
IGROV-1 = tested on: IGROV-1
UACC-62 = tested on: UACC-62
A549 = tested on: A549
HT-29 = tested on: HT-29
HL-60 = tested on: HL-60
HOP-92 = tested on: HOP-92
OVCAR-3 = tested on: OVCAR-3
MOLT-4 = tested on: MOLT-4
786-0 = tested on: 786-0
CAKI-1 = tested on: CAKI-1
SR = tested on: SR
T47D = tested on: T47D
COLO 205 = tested on: COLO 205
LOX IMVI = tested on: LOX IMVI
A498 = tested on: A498
SK-MEL-5 = tested on: SK-MEL-5
DU-145 = tested on: DU-145
HCT-116 = tested on: HCT-116
Malme-3M = tested on: Malme-3M

`N#C/N=[N+](\[O-])c1ccc(C(=O)O)cc1` was tested, and the GI50 (CCRF-CEM) was 32.7 µM (inactive), the GI50 (SF-539) was 16.3 µM (inactive) and the GI50 (NCI-H460) was 28.7 µM (inactive). For the same compound, the GI50 (SF-268) was 19.4 µM (inactive), the GI50 (NCI-H23) was 17.7 µM (inactive) and the GI50 (K562) was 15.4 µM (inactive). For the same compound, the GI50 (SNB-19) was 16.3 µM (inactive), the GI50 (SK-MEL-28) was 18.5 µM (inactive) and the GI50 (EKVX) was 18.4 µM (inactive). For the same compound, the GI50 (NCI-H522) was 19.5 µM (inactive), the GI50 (UO-31) was 16.6 µM (inactive) and the GI50 (HCC 2998) was 25.5 µM (inactive). For the same compound, the GI50 (ACHN) was 18.4 µM (inactive), the GI50 (MDA-MB-435) was 17.9 µM (inactive) and the GI50 (M14) was 18.2 µM (inactive). The GI50 (BT-549) was 16.4 µM (inactive), the GI50 (UACC-257) was 18 µM (inactive) and the GI50 (SF-295) was > 100 µM (inactive). The GI50 (OVCAR-8) was 17.6 µM (inactive), the GI50 (OVCAR-4) was 21 µM (inactive) and the GI50 (U-251) was 19 µM (inactive). The GI50 (RXF 393) was 16.1 µM (inactive), the GI50 (NCI-H226) was 19.2 µM (inactive) and the GI50 (SK-OV-3) was 18.6 µM (inactive). For the same compound, the GI50 (KM12) was > 100 µM (inactive), the GI50 (SK-MEL-2) was 18.7 µM (inactive) and the GI50 (NCI/ADR-RES) was 19.3 µM (inactive). For the same compound, the GI50 (SNB-75) was 23.1 µM (inactive), the GI50 (MCF7) was 19.2 µM (inactive) and the GI50 (SW-620) was 19.9 µM (inactive). The GI50 (HCT-15) was 16.2 µM, the GI50 (HOP-62) was 16.6 µM (inactive) and the GI50 (OVCAR-5) was 20 µM (inactive). The GI50 (PC-3) was 17.1 µM (inactive), the GI50 (RPMI-8226) was 14.5 µM (inactive) and the GI50 (TK-10) was 17.5 µM (inactive). For the same compound, the GI50 (Hs-578T) was 30.8 µM (inactive), the GI50 (IGROV-1) was 43.5 µM (inactive) and the GI50 (UACC-62) was 17.4 µM (inactive). The GI50 (A549) was > 100 µM (inactive), the GI50 (HT-29) was 20.3 µM (inactive) and the GI50 (HL-60) was < 0.01 µM (active). For the same compound, the GI50 (HOP-92) was 20.4 µM (inactive) and the GI50 (OVCAR-3) was 15.2 µM (inactive).

In the case of `CCN(CC)Cc1ccc(C(=S)Nc2ccc(C)cc2)s1`, the GI50 (MOLT-4) was 13 µM (inactive), the GI50 (CCRF-CEM) was 8.83 µM (inactive) and the GI50 (SF-539) was 20.4 µM (inactive). For the same compound, the GI50 (NCI-H460) was 15.4 µM (inactive), the GI50 (SF-268) was 1.25 µM (inactive) and the GI50 (786-0) was 15.5 µM (inactive). The GI50 (NCI-H23) was 8.09 µM (inactive), the GI50 (K562) was 6.59 µM (inactive) and the GI50 (SNB-19) was 19 µM (inactive). For the same compound, the GI50 (SK-MEL-28) was 15 µM (inactive), the GI50 (CAKI-1) was 15 µM (inactive) and the GI50 (EKVX) was 16.2 µM (inactive). The GI50 (SR) was 12.1 µM (inactive), the GI50 (NCI-H522) was 14.6 µM (inactive) and the GI50 (T47D) was 15.9 µM (inactive). For the same compound, the GI50 (UO-31) was 15.5 µM (inactive), the GI50 (COLO 205) was 16 µM (inactive) and the GI50 (HCC 2998) was 12.9 µM (inactive). The GI50 (ACHN) was 16 µM (inactive), the GI50 (MDA-MB-435) was 12.2 µM (inactive) and the GI50 (M14) was 15.1 µM (inactive). The GI50 (BT-549) was 20.3 µM (inactive), the GI50 (LOX IMVI) was 16 µM (inactive) and the GI50 (UACC-257) was 11.4 µM (inactive). For the same compound, the GI50 (A498) was 13.3 µM (inactive), the GI50 (SF-295) was 13.8 µM (inactive) and the GI50 (OVCAR-8) was 14.8 µM (inactive). For the same compound, the GI50 (OVCAR-4) was 21.6 µM (inactive), the GI50 (U-251) was 14.7 µM (inactive) and the GI50 (SK-OV-3) was 15.6 µM (inactive). The GI50 (KM12) was 15.3 µM (inactive), the GI50 (SK-MEL-5) was 13.4 µM (inactive) and the GI50 (SK-MEL-2) was 15.7 µM (inactive). The GI50 (NCI/ADR-RES) was 19.2 µM (inactive), the GI50 (DU-145) was 20.5 µM (inactive) and the GI50 (MCF7) was 12.3 µM (inactive). The GI50 (HCT-116) was 15.1 µM (inactive), the GI50 (SW-620) was 20.2 µM (inactive) and the GI50 (HCT-15) was 16.4 µM. The GI50 (HOP-62) was 17.5 µM (inactive), the GI50 (OVCAR-5) was 14.8 µM (inactive) and the GI50 (PC-3) was 14.3 µM (inactive). The GI50 (RPMI-8226) was 14.7 µM (inactive), the GI50 (Hs-578T) was 1.84 µM (inactive) and the GI50 (IGROV-1) was 10.9 µM (inactive). For the same compound, the GI50 (UACC-62) was 14.2 µM (inactive), the GI50 (A549) was 16.6 µM (inactive) and the GI50 (HT-29) was 4.08 µM (inactive). The GI50 (HL-60) was 9.66 µM (inactive), the GI50 (Malme-3M) was 16.5 µM (inactive) and the GI50 (OVCAR-3) was 21.2 µM (inactive).
